The record followed here is patent US7342122B2, “Bisphosphonate complexes” (priority 2003, dated 2008).

Test [1] is described as follows: In vitro assay, adsorption of Pt complexes to hydroxyapatite. Type of test: binding. As to the method: Each of a 5, 10, 15, 25, 35, and 100 mg sample of hydroxyapatite (Bio-Rad Macro-Prep Ceramic Hydroxyapatite, type I, 40 μm) was added to 2 ml of HEPES buffer at pD=7.8 and the resulting mixture was shaken for about 24 h at 37° C. Then, 100 μl of each complexes dissolved in HEPES buffer at pD=7.8 was added and the mixtures were shaken for 1.5 h at 37° C. All suspensions were filtered, and these solutions were measured by ^31P NMR (Varian VXR-300S) and Atomic Absorption Spectrometry (Hitachi Z-5710 AAS) of platinum or, for carboplatin, by ^1H NMR. Percentage adsorption to hydroxyapatite was calculated as follows. From NMR: Binding percentage/%=[(A−B)/A]×100 From AAS: Binding percentage/%=[(C−D)/C]×100 • A=the integration intensity of Pt(II) complex • B=the integration intensity of Pt(II) complex after reacted with hydroxyapatite • C=the concentration of Pt(II) complex • D=the concentration of Pt(II) complex after reacted with hydroxyapatite

The subject of the next test is HT-29. Nature of the test: Cell growth inhibition, colon cancer cell line HT-29. Type of test: cell-based. The settings on record: HT-29, colon cancer cell line. As to the method:
(§1) KB cells were purchased from Human Science Research Resource Bank (Osaka, Japan). The cells were cultured in Earle's MEM (GIBCO BRL) containing 10% FBS (Bio Whittaker) at 37° C. under 5% CO2. After 24 hours the test compounds were added to the cells at the indicated concentrations. 72 hours later the cells were stained with tripan blue and counted manually. IC50 is calculated as the concentration (aqueous solution) of complex required to inhibit growth of cells by 50%.
(§2) In a similar fashion a representative number of examples of compounds of the invention were tested for their ability to inhibit the growth/proliferation of cell types representing a number of different cancers. The results are provided in Tables 4-13, below, which provide the Inhibition Constants (IC50, μM) for each compound across various cell lines.

The subject of another test is MKN74. Nature of the test: Cell growth inhibition, human stomach cancer MKN74. It is filed as cell-based. The method, then:
as §1, §2

The next test has as its system MDA-MB-231. Nature of the test: Cell growth inhibition, breast cancer cell line MDA-MB-231. Type of test: cell-based. The settings on record: MDA-MB-231, breast cancer cell line. As to the method: as §1, §2
The test system of the next test is OVCAR-4. Nature of the test: Cell growth inhibition, ovarian cancer cell line OVCAR-4. It is filed as cell-based. The settings on record: OVCAR-4, ovarian cancer cell line. The method, then: as §1, §2
The next test concerns OVCAR-8. Nature of the test: Cell growth inhibition, ovarian cancer cell line OVCAR-8. Type of test: cell-based. The conditions noted are these: OVCAR-8, ovarian cancer cell line. The method, then:
as §1, §2

In a further test the test system is KB cells. Nature of the test: In vitro assay, cell growth inhibition (KB cells). Type of test: cell-based. The conditions noted are these: 72 hours. As to the method: as §1
In another test the test system is MKN7. Nature of the test: Cell growth inhibition, human stomach cancer MKN7. It is filed as cell-based. As to the method: as §1, §2
In the next test the test system is MCF-7. Nature of the test: Cell growth inhibition, breast cancer cell line MCF-7. It is filed as cell-based. The conditions noted are these: MCF-7, breast cancer cell line. As to the method:
as §1, §2

A further test relates to BSY-1. Nature of the test: Cell growth inhibition, breast cancer cell line BSY-1. Type of test: cell-based. The conditions noted are these: BSY-1, breast cancer cell line. As to the method:
as §1, §2

The subject of the next test is NCI-H23. Nature of the test: Cell growth inhibition, lung cancer cell line NCI-H23. It is filed as cell-based. The method, then: as §1, §2
The test system of test [2] is all cell types (cancer cell lines of Tables 4-12). Nature of the test: Cell growth inhibition, mean over all cell types of the panel. It is filed as cell-based. The conditions noted are these: mean over all cell lines of Tables 4-12. As to the method:
as §1, §2

The test system of a further test is MKN28. Nature of the test: Cell growth inhibition, human stomach cancer MKN28. Type of test: cell-based. The method, then:
as §1, §2

The subject of another test is OVCAR-5. Nature of the test: Cell growth inhibition, ovarian cancer cell line OVCAR-5. It is filed as cell-based. The conditions noted are these: OVCAR-5, ovarian cancer cell line. As to the method:
as §1, §2

The next test deals with HBC-4. Nature of the test: Cell growth inhibition, breast cancer cell line HBC-4. Type of test: cell-based. The conditions noted are these: HBC-4, breast cancer cell line. As to the method:
as §1, §2

Another test concerns SF-295. Nature of the test: Cell growth inhibition, brain cancer cell line SF-295. It is filed as cell-based. The conditions noted are these: SF-295, brain cancer cell line. As to the method: as §1, §2
Another test deals with NCI-H226. Nature of the test: Cell growth inhibition, lung cancer cell line NCI-H226. Type of test: cell-based. As to the method:
as §1, §2

A further test has as its system RXF-631L. Nature of the test: Cell growth inhibition, renal cancer RXF-631L. Type of test: cell-based. As to the method: as §1, §2
The next test deals with HCT-116. Nature of the test: Cell growth inhibition, colon cancer cell line HCT-116. The settings on record: HCT-116, colon cancer cell line. It is filed as cell-based. As to the method:
as §1, §2

The test system of the next test is ACHN. Nature of the test: Cell growth inhibition, renal cancer ACHN. It is filed as cell-based. As to the method:
as §1, §2

In another test the test system is U251. Nature of the test: Cell growth inhibition, brain cancer cell line U251. It is filed as cell-based. As to the method:
as §1, §2

In the next test the test system is NCI-H460. Nature of the test: Cell growth inhibition, lung cancer cell line NCI-H460. It is filed as cell-based. As to the method: as §1, §2
A further test concerns HBC-5. Nature of the test: Cell growth inhibition, breast cancer cell line HBC-5. Type of test: cell-based. The conditions noted are these: HBC-5, breast cancer cell line. The method, then: as §1, §2
The test system of the next test is SF-268. Nature of the test: Cell growth inhibition, brain cancer cell line SF-268. It is filed as cell-based. The conditions noted are these: SF-268, brain cancer cell line. As to the method:
as §1, §2

The test system of the next test is DU-145. Nature of the test: Cell growth inhibition, prostatic cancer DU-145. Type of test: cell-based, human. The conditions noted are these: DU-145, prostatic cancer. The method, then: as §1, §2
The next test relates to SF-539. Nature of the test: Cell growth inhibition, brain cancer cell line SF-539. Type of test: cell-based. The conditions noted are these: SF-539, brain cancer cell line. As to the method: as §1, §2
For a further test, the system named is SK-OV-3. Nature of the test: Cell growth inhibition, ovarian cancer cell line SK-OV-3. Type of test: cell-based. The conditions noted are these: SK-OV-3, ovarian cancer cell line. The method, then: as §1, §2
Another test concerns St-4. Nature of the test: Cell growth inhibition, human stomach cancer St-4. It is filed as cell-based. The settings on record: St-4, human stomach cancer. As to the method:
as §1, §2

The next test deals with LOX-IMVI. Nature of the test: Cell growth inhibition, melanoma cell line LOX-IMVI. Type of test: cell-based. The method, then: as §1, §2
For a further test, the system named is OVCAR-3. Nature of the test: Cell growth inhibition, ovarian cancer cell line OVCAR-3. The conditions noted are these: OVCAR-3, ovarian cancer cell line. It is filed as cell-based. As to the method:
as §1, §2

In the next test the test system is KM-12. Nature of the test: Cell growth inhibition, colon cancer cell line KM-12. It is filed as cell-based. The conditions noted are these: KM-12, colon cancer cell line. As to the method: as §1, §2
The test system of another test is HCC2998. Nature of the test: Cell growth inhibition, colon cancer cell line HCC2998. It is filed as cell-based. As to the method: as §1, §2
The subject of a further test is DMS273. Nature of the test: Cell growth inhibition, lung cancer cell line DMS273. Type of test: cell-based. The method, then: as §1, §2
The next test has as its system MKN45. Nature of the test: Cell growth inhibition, human stomach cancer MKN45. It is filed as cell-based. As to the method: as §1, §2
A further test deals with SNB-78. Nature of the test: Cell growth inhibition, brain cancer cell line SNB-78. Type of test: cell-based. The settings on record: SNB-78, brain cancer cell line. The method, then: as §1, §2
The subject of the next test is SNB-75. Nature of the test: Cell growth inhibition, brain cancer cell line SNB-75. Type of test: cell-based. The settings on record: SNB-75, brain cancer cell line. As to the method:
as §1, §2

The test system of the next test is DMS114. Nature of the test: Cell growth inhibition, lung cancer cell line DMS114. It is filed as cell-based. The method, then:
as §1, §2

In the next test the test system is PC-3. Nature of the test: Cell growth inhibition, prostatic cancer PC-3. Type of test: cell-based. The settings on record: PC-3, prostatic cancer. As to the method:
as §1, §2

The subject of another test is A549. Nature of the test: Cell growth inhibition, lung cancer cell line A549. Type of test: cell-based. As to the method:
as §1, §2

Another test has as its system NCI-H522. Nature of the test: Cell growth inhibition, lung cancer cell line NCI-H522. It is filed as cell-based. The method, then:
as §1, §2

The next test has as its system MKN1. Nature of the test: Cell growth inhibition, human stomach cancer MKN1. Type of test: cell-based. The method, then:
as §1, §2

The term IC50 denotes the concentration at which inhibition is half-maximal.

On to `[NH2][Pt]1([NH2])[O]P(=O)(O)CP(=O)(O)[O]1` [Example 1, cis-Pt(NH3)2(MDP)], for which the “adsorption percentage to hydroxyapatite” value in test [1] (100 mg of hydroxyapatite, HEPES buffer pD=7.8, 1.5 h, 37° C.) is reported as 69.3%. For the same molecule, the “adsorption to hydroxyapatite, comparison in words” value in [1] (FIGS. 1 and 2, 31P NMR, 1H NMR, AAS) was “adsorbed quite significantly more than carboplatin”.

For `[Cl-].[Cl-].c1cc[n+]2c(c1)-c1cccc[n+]1[Pt-2]21[NH2+]CC[NH+]1Cc1c2ccccc2cc2ccccc12` [Example 4, [Pt(bpy)(Aten)]Cl2], the log10 IC50 (M) was -4.57 in the test with HT-29; -4.75 in the test with MKN74; -4.5 with MDA-MB-231; -4.19 in the test on OVCAR-4; -4.37 in the test on OVCAR-8; -4.45 in the test with MKN7. Besides, the log10 IC50 (M) in the test with MCF-7 was -4.23; with BSY-1, -4.89; in the test with NCI-H23, -4.18; in [2], -4.54; in the test with MKN28 it was -4.34; with OVCAR-5 it was -4.79. For the same molecule, the log10 IC50 (M) in the test with HBC-4 was -4.14; in the test with SF-295, -4.9; in the test on NCI-H226, -4.83; with RXF-631L it was -4.89; in the test with HCT-116, -4.37; in the test on ACHN it was -4.2. The log10 IC50 (M) in the test on U251 is -4.84; in the test with NCI-H460, -5.23; with HBC-5, -4.12; in the test with SF-268 it was -4.83; in the test on DU-145 it was -4.33; in the test with SF-539, -4.82. Also, the log10 IC50 (M) in the test with SK-OV-3 was -4.77; in the test with St-4, -4.74; in the test with LOX-IMVI, -4.46; with OVCAR-3 it was -4.13; in the test with KM-12, -4.77; with HCC2998 it was -4.81. The log10 IC50 (M) is -4.85 with DMS273; -4.68 in the test on MKN45; -4.56 in the test with SNB-78; -4.77 in the test on SNB-75; -4.89 in the test with DMS114; -4.22 with PC-3. In the test with A549, the log10 IC50 (M) is -4.69. Besides, the “KB cells remaining/growth in percent (Table 2, untitled)” value in the test on KB cells (1 μg/ml) is 93.8%; in the test on KB cells (3 μg/mL) it was 81.4%; in the test on KB cells (10 μg/mL), 75.3%; in the test on KB cells (30 μg/mL) it was 73.2%; in the test with KB cells (100 μg/mL), 32.5%. In the test with KB cells (concentration to inhibit growth of cells by 50%), this molecule registered an IC50 of 97 µM.

For `N.N.O.O.O.O.O.O.O.O=P([O-])([O-])OC1C(OP(=O)([O-])[O-])C(OP(=O)([O-])[O-])C(OP(=O)([O-])[O][Pt+])C(OP(=O)([O-])[O-])C1OP(=O)([O-])[O-].[Na+].[Na+].[Na+].[Na+].[Na+].[Na+].[Na+].[Na+].[Na+].[Na+]` (centres unmarked) [Example 9, Pt(NH3)—IP6 Pt(NH3)2.IP6.10Na.7H2O], the log10 IC50 (M) is -4.06 in the test with MDA-MB-231; -4.42 with OVCAR-4; -4.19 in the test on MCF-7; -4.71 with BSY-1; -4.7 with NCI-H23; -4.38 in test [2]. The log10 IC50 (M) is -4.27 in the test with HBC-4; -4.46 in the test on SF-295; -4.37 with RXF-631L; -4.41 in the test with HCT-116; -5.69 in the test with NCI-H522; -5.37 in the test on ACHN. For the same molecule, the log10 IC50 (M) in the test on NCI-H460 was -4.46; in the test on HBC-5, -5.16; in the test with SF-268, -4.26; in the test on DU-145, -4.66; in the test with SK-OV-3, -5.2; with LOX-IMVI, -4.08. In addition, the log10 IC50 (M) is -4.82 in the test on OVCAR-3; -4.29 with DMS273; -4.14 with MKN45; -4.29 with SNB-78; -4.42 with MKN1; -5.51 in the test with SNB-75. Also, the log10 IC50 (M) in the test on DMS114 is -4.72; with PC-3, -4.04.
